From publication PMC5650409 (Oncotarget, 2017)

Key:
T3M4 tumor-bearing mice = assay: Small-animal PET imaging of T3M4 xenografts (with aseptic inflammation, with and without β-D-lactose blocking); assay type: in vivo; settings: for tumor uptake (PET ROI-derived): T3M4 tumor, 60 min post-injection
Experimental: (§1) All animal experiments were performed in adherence with the Peking Union Medical College Hospital (PUMCH) guidelines for the use of laboratory animals and were approved by PUMCH Clinical Center Animal Care and Use Committee. The pancreatic cancer tumor-bearing models were generated by subcutaneous injection of 5 × 10^6 human T3M4 pancreatic cancer cells (kindly supplied by Prof. Taiping Zhang from the Department of General Surgery, Peking Union Medical College Hospital) and SK-BR-3 breast cancer cells (kindly supplied by Prof. Wei Ge from Department of Immunology, Institute of Basic Medical Sciences), into the right shoulder of female athymic nude mice (Laboratory Animal Center of PUMCH). Tumor sizes were monitored with a vernier caliper. When the tumor reached approximately 3-5 mm in diameter, T3M4 tumor-bearing mice were intramuscularly injected with 0.2 mL turpentine into the left hind leg muscle. After 72 h, those tumor-bearing mice with a visible mass in left thigh muscle, were selected and used as models with aseptic inflammation.
(§2) In vivo PET imaging was performed using a small-animal PET scanner Inveon (Siemens Medical systems, USA). […] Mice were anesthetized with isoflurane and placed on a heated pad (to provide the animal with warmth throughout the scanning). PET images were acquired at 30, 60, 90 and 120 min post-injection. After the acquisition, region of interests (ROIs), including tumor, muscle, brain and kidney were drawn over major organs on decay-corrected whole-body coronal images using Inveon Research Workplace 4.1 software. Radioactivity concentration of organs was obtained from the mean pixel values within the multiple ROI volume, and converted into MBq/mL using a conversion factor. Assuming the density of tissue was 1 g/cm^3, the ROIs were converted to MBq/g and then divided by the administered activity, to obtain an imaging ROI-derived %ID/g.

[1] = In vitro stability in fetal bovine serum; assay type: in vitro ADME; settings: 37 °C, 120 min
[2] = Experimental: Urine and blood samples were collected at 15 min post-injection and blood was centrifuged (8000 rpm, 10 min) to separate out the plasma. Urine and plasma samples were analyzed by radio-TLC, as above.
[3] = Octanol-water partition coefficient determination; assay type: physicochemical; settings: n-octanol / PBS pH 7.4
Experimental: After vortexing for 10 min, the tube was centrifuged (8000 rpm, 3 min) for layer separation. An aliquot of the aqueous and n-octanol layers was collected and measured by a γ-counter.

[4] = system: SK-BR-3 tumor-bearing mice; assay: Small-animal PET imaging of SK-BR-3 xenografts; assay type: in vivo
Experimental: as §1, §2

[5] = system: T3M4 tumor-bearing nude mice; assay: In vivo biodistribution; settings: n = 5
Experimental: All animal experiments were performed in adherence with the Peking Union Medical College Hospital (PUMCH) guidelines for the use of laboratory animals and were approved by PUMCH Clinical Center Animal Care and Use Committee. […] Zhang from the Department of General Surgery, Peking Union Medical College Hospital) and SK-BR-3 breast cancer cells (kindly supplied by Prof. Wei Ge from Department of Immunology, Institute of Basic Medical Sciences), into the right shoulder of female athymic nude mice (Laboratory Animal Center of PUMCH). Tumor sizes were monitored with a vernier caliper. […] After 72 h, those tumor-bearing mice with a visible mass in left thigh muscle, were selected and used as models with aseptic inflammation. […] At 5 min, 30 min, 60 min and 120 min after injection, mice were sacrificed by humane euthanasia - cervical dislocation. Blood was obtained through the eyeball, and tissues and organs of interests (brain, heart, lung, liver, pancreas, kidney, spleen, intestine, muscle, stomach, bone and tumor) were then weighed and counted. All measurements were background-subtracted and decay-corrected to the time of killing and then averaged. Radioactivity values were calculated and presented as the percentage injected dose per gram (%ID/g) of tissue.

[6] = 15 min after intravenous injection, radio-TLC
[7] = SK-BR-3 xenografts, 60 min post-injection

accumulation in inflammatory tissue (T3M4 tumor-bearing mice; T3M4-inflammation mice, 60 min after injection, PET): non-accumulation in inflammatory tissue | tumor uptake (PET ROI-derived) (T3M4 tumor-bearing mice; co-injection of β-D-lactose (15 mg/kg)): 2.36 ± 0.11 %ID/g | tumor uptake (PET ROI-derived) (T3M4 tumor-bearing mice; no blocking): 10.7 ± 1.01 %ID/g | intact ^18F-FEL in fetal bovine serum [1]: greater than 95% | percentage of intact probe in plasma [2, 6]: no less than 94% | percentage of intact probe in urine [2, 6]: no less than 94% | dehalogenation in vivo ([2]; plasma and urine 15 min after intravenous injection, supported by low bone uptake): Almost no dehalogenation was detected | log P [3]: −2.62 ± 0.12 | radioactivity uptake in SK-BR-3 tumor ([4]; SK-BR-3 breast tumor-bearing mice with no HIP/PAP expression, PET): low | uptake ratio of tumor-to-blood [4, 7]: 0.37 ± 0.01 | uptake ratio of tumor-to-liver [4, 7]: 0.54 ± 0.01 | uptake ratio of tumor-to-muscle [4, 7]: 1.37 ± 0.05 | Biodistribution, Blood ([5]; 5 min after injection): 9.58 ± 0.51 %ID/g | Biodistribution, Bone ([5]; 5 min after injection): 1.34 ± 0.23 %ID/g | Biodistribution, Brain ([5]; 5 min after injection): 0.67 ± 0.23 %ID/g | Biodistribution, Heart ([5]; 5 min after injection): 3.81 ± 0.62 %ID/g | Biodistribution, Intestine ([5]; 5 min after injection): 2.57 ± 0.30 %ID/g | Biodistribution, Kidney ([5]; 5 min after injection): 19.4 ± 4.76 %ID/g | Biodistribution, Liver ([5]; 5 min after injection): 2.12 ± 0.21 %ID/g | Biodistribution, Lung ([5]; 5 min after injection): 2.29 ± 0.35 %ID/g | Biodistribution, Muscle ([5]; 5 min after injection): 2.50 ± 0.15 %ID/g | Biodistribution, Pancreas ([5]; 5 min after injection): 2.90 ± 1.28 %ID/g | Biodistribution, Spleen ([5]; 5 min after injection): 1.89 ± 0.62 %ID/g | Biodistribution, Stomach ([5]; 5 min after injection): 3.60 ± 0.64 %ID/g | Biodistribution, Tumor ([5]; 5 min after injection): 6.67 ± 0.42 %ID/g | Biodistribution, Blood ([5]; 30 min after injection): 2.31 ± 0.67 %ID/g | Biodistribution, Bone ([5]; 30 min after injection): 0.60 ± 0.26 %ID/g | Biodistribution, Brain ([5]; 30 min after injection): 0.16 ± 0.04 %ID/g | Biodistribution, Heart ([5]; 30 min after injection): 0.88 ± 0.25 %ID/g | Biodistribution, Intestine ([5]; 30 min after injection): 0.94 ± 0.16 %ID/g | Biodistribution, Kidney ([5]; 30 min after injection): 9.59 ± 1.80 %ID/g | Biodistribution, Liver ([5]; 30 min after injection): 1.36 ± 0.07 %ID/g | Biodistribution, Lung ([5]; 30 min after injection): 1.91 ± 0.42 %ID/g | Biodistribution, Muscle ([5]; 30 min after injection): 0.91 ± 0.12 %ID/g | Biodistribution, Pancreas ([5]; 30 min after injection): 0.69 ± 0.33 %ID/g | Biodistribution, Spleen ([5]; 30 min after injection): 0.77 ± 0.19 %ID/g | Biodistribution, Stomach ([5]; 30 min after injection): 1.03 ± 0.33 %ID/g | Biodistribution, Tumor ([5]; 30 min after injection): 3.24 ± 0.11 %ID/g | Biodistribution, Blood ([5]; 60 min after injection): 0.87 ± 0.31 %ID/g | Biodistribution, Bone ([5]; 60 min after injection): 0.31 ± 0.02 %ID/g | Biodistribution, Brain ([5]; 60 min after injection): 0.10 ± 0.02 %ID/g | Biodistribution, Heart ([5]; 60 min after injection): 0.38 ± 0.10 %ID/g | Biodistribution, Intestine ([5]; 60 min after injection): 0.56 ± 0.35 %ID/g | Biodistribution, Kidney ([5]; 60 min after injection): 4.35 ± 1.53 %ID/g | Biodistribution, Liver ([5]; 60 min after injection): 0.83 ± 0.23 %ID/g | Biodistribution, Lung ([5]; 60 min after injection): 0.71 ± 0.37 %ID/g | Biodistribution, Muscle ([5]; 60 min after injection): 0.77 ± 0.30 %ID/g | Biodistribution, Pancreas ([5]; 60 min after injection): 0.63 ± 0.34 %ID/g | Biodistribution, Spleen ([5]; 60 min after injection): 0.56 ± 0.30 %ID/g | Biodistribution, Stomach ([5]; 60 min after injection): 0.82 ± 0.61 %ID/g | Biodistribution, Tumor ([5]; 60 min after injection): 1.03 ± 0.09 %ID/g | Biodistribution, Blood ([5]; 120 min after injection): 0.29 ± 0.12 %ID/g | Biodistribution, Bone ([5]; 120 min after injection): 0.12 ± 0.02 %ID/g | Biodistribution, Brain ([5]; 120 min after injection): 0.06 ± 0.03 %ID/g | Biodistribution, Heart ([5]; 120 min after injection): 0.20 ± 0.04 %ID/g | Biodistribution, Intestine ([5]; 120 min after injection): 0.20 ± 0.07 %ID/g | Biodistribution, Kidney ([5]; 120 min after injection): 2.08 ± 0.74 %ID/g | Biodistribution, Liver ([5]; 120 min after injection): 0.59 ± 0.09 %ID/g | Biodistribution, Lung ([5]; 120 min after injection): 0.38 ± 0.11 %ID/g | Biodistribution, Muscle ([5]; 120 min after injection): 0.15 ± 0.07 %ID/g | Biodistribution, Pancreas ([5]; 120 min after injection): 0.29 ± 0.07 %ID/g | Biodistribution, Spleen ([5]; 120 min after injection): 0.30 ± 0.17 %ID/g | Biodistribution, Stomach ([5]; 120 min after injection): 0.24 ± 0.17 %ID/g | Biodistribution, Tumor ([5]; 120 min after injection): 0.65 ± 0.12 %ID/g
SMILES: OC[C@H]1O[C@@H](O[C@H]2[C@H](O)[C@@H](O)[C@H](OCC[18F])O[C@@H]2CO)[C@H](O)[C@@H](O)[C@H]1O [^18F-FEL, 1'-^18F-fluoroethyl-β-D-lactose]
reduction of specific tumor accumulation in PET competition assay (T3M4 tumor-bearing mice; co-injection of β-D-lactose): approximately 80%
